Where two headings read alike, the source gives them in different places. Where a SMILES comes first, the peptide text is derived from it. The star is where a group is joined. Cbz = O=C(OCc1ccccc1)*
Columns and labels:
HCT-15 cells [1] = assay: GFP-L7a expression in treated HCT-15 cells (FIG. 8); format: cell-based, human
Excerpt: FIG. 8 contains pictures of cells. HCT-15 cells, grown on 35 mm glass bottom dishes, were transfected with the GFP-L7a vector pCMV6-AC-GFP to express GFP-L7a protein.

HCT-15 cells [2] = assay: Cell survival assay using MTT (toxicity study, FIG. 7); details: for toxicity (cell survival, MTT): at the applied concentrations, compounds dissolved in DMSO; for cellular proliferation: prolonged 24-hour treatments
Method: (§1) To further assess protein biosynthesis in the perinuclear area and ribosome biogenesis, several chemical agents were tested on cellular growth and survival.
(§2) All the tested compounds were dissolved in dimethylsulfoxide (DMSO).
(§3) The human colorectal adenocarcinoma cell lines: HCT-15 was purchased from ATCC. Cultures of cells maintained in DMEM/F12 medium containing 10% FBS and antibiotics, at 37° C. with 5% CO2. For cell treatments, cells were grown at 80% confluence in complete medium.

HCT-15 cells [3] = test system: HCT-15 cells
Method: as §1, §2, §3

[4] = HCT-15 cells transfected with GFP-L7a vector pCMV6-AC-GFP

| SMILES | nucleolar hypertrophy (GFP-L7a) (HCT-15 cells [1]; [4]) | perinuclear protein synthesis (GFP-L7a) (HCT-15 cells [1]; [4]) | toxicity (cell survival, MTT) (HCT-15 cells [2]) | cellular proliferation (HCT-15 cells [2]) | perinuclear protein synthesis (GFP-L7a) (HCT-15 cells [1]) | toxicity (cell survival, MTT) (HCT-15 cells [3]) |
| --- | --- | --- | --- | --- | --- | --- |
| CC(C)C[C@@H](C=O)NC(=O)[C@H](CC(C)C)NC(=O)[C@H](CC(C)C)NC(=O)OCc1ccccc1 [MG132, Benzyl N-[(2S)-4-methyl-1-[[(2S)-4-methyl-1-[[(2S)-4-methyl-1-oxopentan-2-yl]amino]-1-oxopentan-2-yl]amino]-1-oxopentan-2-yl]carbamate] (Cbz-Leu-Leu-Leu-aldehyde) | induced | induced | no toxicity | inhibited cellular proliferation | – | – |
| COC1=C2C[C@@H](C)C[C@H](OC)[C@H](O)[C@@H](C)/C=C(\C)[C@H](OC(N)=O)[C@@H](OC)/C=C\C=C(/C)C(=O)NC(=CC1=O)C2=O [Geldanamycin, (4E,6Z,8S,9S,10E,12S,13R,14S,16R)-13-hydroxy-8,14,19-trimethoxy-4,10,12,16-tetramethyl-3,20,22-trioxo-2-azabicyclo[16.3.1]docosa-1(21),4,6,10,18-pentaen-9-yl carbamate] | induced | induced | no toxicity | inhibited cellular proliferation | – | – |
| CC(C)n1nc(-c2cc3cc(O)ccc3[nH]2)c2c(N)ncnc21 [pp242, 2-(4-amino-1-isopropyl-1H-pyrazolo[3,4-d]pyrimidin-3-yl)-1H-indol-5-ol] | – | – | – | – | induced | no toxicity |
| O=C1Nc2cc(Br)ccc2/C1=C1/Nc2ccccc2/C1=N\O [Bio, (2′Z,3′E)-6-Bromoindirubin-3′-oxime] | induced | induced | – | – | – | more toxic than the other compounds |
| CCc1cncnc1N1CCN(Cc2nc3cc(C(F)(F)F)ccc3[nH]2)CC1 [PF4708671, 2-((4-(5-Ethylpyrimidin-4-yl)piperazin-1-yl)methyl)-5-(trifluoromethyl)-1H-benzo[d]imidazole] | induced | induced | no toxicity | – | – | – |
| C=C(C)[C@H]1Cc2c(ccc3c2O[C@@H]2COc4cc(OC)c(OC)cc4[C@@H]2C3=O)O1 [Rotenone, (2R,6aS,12a5)-1,2,6,6a,12,12a-hexahydro-2-isopropenyl-8,9-dimethoxychromeno[3,4-b]furo(2,3-h)chromen-6-one] | induced | induced | – | inhibited cellular proliferation | – | no toxicity |
